Measured values from patent US9233116B2, “Composition containing iridoids and uses thereof” (XUANWU HOSPITAL OF CAPITAL MEDICAL UNIVERSITY, priority 2010, dated 2016).

Experiments:
[1] = system: experimental autoimmune encephalomyelitis (EAE) mice model; assay: Nervous function score in EAE mice model; format: in vivo, C57BL/6J mice; settings: peak of attack, positive control drug, dose not given
Description: (§1) Preparation of mice model and administration: experimental autoimmune encephalomyelitis (EAE) mice model is an important tool for studying various human nervous system demyelinating diseases. In the present experiment, the preparation of EAE mice model was performed by immunizing female C57BL/6J mice with myelin sheath oligodendroglial cell surface glycoprotein MOG35-55. That is, the mice were subcutaneously injected at dorsal part of spinal column with 0.2 mL of MOG35-55 antigen elixir, and 0.2 ml of bordetella pertussis solution was intraperitoneally injected at the time of immunization injection and 48 h thereafter, respectively. The composition of morroniside and loganin was intragastrically administered after the last injection of bordetella pertussis solution, for consecutive 3 weeks.
Nervous function test method: the ethological changes of mice were observed by two experimenters every day using blind method. Scoring standard: 0 score, absence of symptom; 1 score, decrease of tail tension, evident slight gait awkward; 2 score, disappearance of tail tension, moderate gait abnormal, deficient in maintaining gesture; 3 score, limb strength weak; 4 score, limb paralysis; 5 score, near death or died.

[2] = Body weight drop in EAE mice model; format: in vivo, C57BL/6J mice; settings: peak of attack, positive control drug, dose not given
Description: as §1
Experimental method: the methods for modeling and administration were the same of Experiment 1. The body weight changes of mice were recorded every day.

[3] = system: myelin sheath of spinal cord in EAE model mice; assay: Myelinoclasis of spinal cord in EAE mice model (LFB staining); format: in vivo; settings: day 29, positive control drug, dose not given
Description: as §1
Experimental method: the mice were anesthetized with 10% chloral hydrate on the 29th day of experiment, fixed by perfusion of 4% paraformaldehyde, myeloid tissues were taken for making paraffin sections, section thickness 5 μm. Stained with LFB, observed under microscope, and scored according to the following standard: 0 score, absence of myelinoclasis; 1 score, one small range of myelinoclasis; 2 score, 2 or 3 small ranges of myelinoclasis; 3 score, 1 to 2 large ranges of myelinoclasis; 4 score, large ranges of myelinoclasis accumulatively existing in 20% or more of white matter regions.

[4] = system: spinal cord tissues of EAE mice model; assay: Inflammatory cell infiltration in spinal cord tissues of EAE mice model (HE staining); format: in vivo; settings: day 29, positive control drug, dose not given
Description: as §1, with “The composition of morroniside and loganin was intragastrically administered after the last injection of bordetella pertussis solution, for consecutive 3 weeks.” left out
Experimental method: the mice were anesthetized with 10% chloral hydrate on the 29th day of experiment, fixed by perfusion of 4% paraformaldehyde, spinal cord tissues were taken for making paraffin sections, section thickness 5 μm. Stained with HE, observed under microscope, and scored according to the following standard: 0 score, absence of cell infiltration; 1 score, spinal meninge cell infiltration; 2 score, 1 to 4 small ranges of cell infiltration around vessels; 3 score, 5 or more small ranges of cell infiltration around vessels, or one or more accumulatively substantial large range of cell infiltration; 4 score, a large number of cell infiltration ranges accumulatively existing in 20% or more of white matter regions.

IL-1 = assay: Serum IL-1 content in EAE mice model (ELISA); format: in vivo; settings: serum of EAE mice; positive control drug, dose not given
Description: as §1
(§2) Experimental method: mice were anesthetized with pentobarbital sodium, blood sample was taken from abdominal aorta, stood at room temperature for 2 h, centrifuged at 3000 rpm for 20 min, and supernatant was taken, stored at −80° C. for use. The operation was performed strictly according to the steps of specification of ELISA kit. Optical density was measured with ELIASA at 450 nm. The corresponding contents of IL-1 and IL-6 were calculated with the measured OD values on standard curve.

IL-6 = assay: Serum IL-6 content in EAE mice model (ELISA); format: in vivo; settings: serum of EAE mice; positive control drug, dose not given
Description: as §1, §2

[5] = system: CNPase (marker protein of mature oligodendroglial cells); assay: CNPase content in spinal cord of EAE model mice (Western blot); format: in vivo; settings: positive control drug, dose not given
Description: as §1
Experimental method: the mice were anesthetized and sacrificed, fresh spinal cord was taken on ice, total protein was extracted by clearage on ice, to prepare Western blot sample, added with CNPase primary antibody and incubated, added with corresponding secondary antibody, ECL colorated, Kodak film exposed. Pictures were analyzed with Image J software and standardized with actin.

[6] = system: experimental autoimmune encephalomyelitis (EAE) rats model; assay: Nervous function damage in EAE rats model; format: in vivo, Lewis rats; settings: peak of attack, positive control drug, dose not given
Description: (§3) Preparation of rat model and administration: in this experiment, the preparation of EAE rat model was performed by multipoint immunizing female Lewis rats subcutaneously at tail root with a homogenate of spinal cord and cerebral gray matter of Guinea pig as well as complete Freund's adjuvant after emulsification. They were intragastrically administered with a composition of morroniside and loganin for 3 weeks.
Nervous function test method: the ethological changes of rats were observed by two experimenters using blind method every day. Scoring standard: 0 score, absence of symptom; 1 score, decrease of tail tension, visible evident slight gait awkward; 2 score, double hind limbs weak, walk difficult; 3 score, double hind limbs paralysis; 4 score, double hind limbs paralysis and fore limbs weak; 5 score, four limbs paralysis; 6 score, near death or died.

[7] = Body weight drop in EAE rat model; format: in vivo, Lewis rats; settings: EAE rats, peak of attack; positive control drug, dose not given
Description: as §3
Experimental method: the methods for modeling and administration were the same of Experiment 7. The body weight changes of rats were recorded every day.

## CC(=O)OCC(=O)[C@@]1(O)CC[C@H]2[C@@H]3CCC4=CC(=O)C=C[C@]4(C)[C@H]3C(=O)C[C@@]21C [prednisone acetate]
[1]
  Nervous function damage score: 1.36 ± 0.62 score
[2]
  Bodyweight: 20.52 ± 1.19 g
[3]
  Myelinoclasis (LFB staining score): 0.81 ± 0.21 score
[4]
  Inflammatory cell infiltration (HE staining score): 1.16 ± 0.12 score
IL-1
  1L-1 content: 0.114 ± 0.001 pg/mL
IL-6
  IL-6 content: 0.124 ± 0.002 pg/mL
[5]
  Oligodendroglial cells (CNPase/actin integration grey level): 1.18 ± 0.02
[6]
  Nervous function damage score: 1.16 ± 1.21 score
[7]
  Bodyweight: 198.5 ± 7.1 g
